Experimental data taken from US11426412B2, “Imidazo-pyridine compounds as PAD inhibitors” (JUBILANT EPIPAD LLC, priority 2017, dated 2022).
Counter-ions that a name gives are not always drawn. Like-named read-outs stand apart in the source and are kept apart here.

Biological target: PAD4 (Homo sapiens (Human), UniProt Q9UM07)
Experiment: Ammonia release biochemical assay (citrullination)
[1] = read-out: NH3 release biochemical assay PAD4 IC50
[2] = Table 1, class A, read-out: IC50 value, ammonia release biochemical assay

PAD4, sequence (Q9UM07 whole entry): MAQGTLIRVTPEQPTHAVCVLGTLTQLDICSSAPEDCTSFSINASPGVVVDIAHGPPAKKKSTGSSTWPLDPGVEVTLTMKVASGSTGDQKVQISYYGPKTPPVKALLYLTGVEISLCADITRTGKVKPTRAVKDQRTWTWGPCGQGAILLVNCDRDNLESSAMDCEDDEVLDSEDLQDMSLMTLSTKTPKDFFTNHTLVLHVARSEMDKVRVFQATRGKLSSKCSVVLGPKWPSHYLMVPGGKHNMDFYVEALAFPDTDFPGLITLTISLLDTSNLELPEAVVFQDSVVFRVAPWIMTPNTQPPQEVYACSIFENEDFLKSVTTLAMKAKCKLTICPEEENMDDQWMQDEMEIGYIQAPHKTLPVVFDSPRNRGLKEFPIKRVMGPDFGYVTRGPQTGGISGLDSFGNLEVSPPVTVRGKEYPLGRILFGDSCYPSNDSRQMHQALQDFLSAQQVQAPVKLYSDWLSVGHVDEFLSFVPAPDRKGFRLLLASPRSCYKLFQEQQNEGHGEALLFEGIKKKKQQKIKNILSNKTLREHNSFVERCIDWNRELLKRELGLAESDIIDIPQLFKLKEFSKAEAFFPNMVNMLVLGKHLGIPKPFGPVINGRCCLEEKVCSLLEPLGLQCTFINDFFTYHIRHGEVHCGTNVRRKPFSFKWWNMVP

IC50 [1] [nM]	IC50 [2] [nM]	SMILES
< 1000	≤ 1000	COc1cccc2cc(-c3nc4cc(C(=O)N5CCC[C@@H](N)C5)ccn4c3C)n(CC3CC3)c12 [Compound 47, (R)-(3-aminopiperidin-1-yl)(2-(1-(cyclopropylmethyl)-7-methoxy-1H-indol-2-yl)-3-methylimidazo[1,2-a]pyridin-7-yl)methanone]
< 1000	≤ 1000	Cc1ncc(Cn2c(-c3nc4cc(C(=O)N5CCC[C@@H](N)C5)ccn4c3C)cc3ccccc32)s1 [Compound 49, (R)-(3-aminopiperidin-1-yl)(3-methyl-2-(1-((2-methylthiazol-5-yl)methyl)-1H-indol-2-yl)imidazo[1,2-a]pyridin-7-yl)methanone]
< 1000	–	COc1ccc2cc(-c3nc4cc(C(=O)N5CCC[C@@H](N)C5)ccn4c3C)n(Cc3cccnc3)c2c1 [Compound 51, (R)-(3-aminopiperidin-1-yl) (2-(6-methoxy-1-(pyridin-3-ylmethyl)-1H-indol-2-yl)-3-methylimidazo[1,2-a]pyridin-7-yl)methanone]
< 1000	–	COc1cccc(Cn2c(-c3nc4cc(C(=O)N5CCC[C@@H](N)C5)ccn4c3C)cc3cc(F)ccc32)c1 [Compound 53, (R)-(3-aminopiperidin-1-yl)(2-(5-fluoro-1-(3-methoxybenzyl)-1H-indol-2-yl)-3-methylimidazo[1,2-a]pyridin-7-yl)methanone]
< 1000	–	Cc1c(-c2cc3ccc(F)cc3n2Cc2ccc(F)cc2)nc2cc(C(=O)N3CCC[C@@H](N)C3)ccn12 [Compound 54, (R)-(3-aminopiperidin-1-yl)(2-(6-fluoro-1-(4-fluorobenzyl)-1H-indol-2-yl)-3-methylimidazo[1,2-a]pyridin-7-yl)methanone]
< 1000	–	COc1cccc(Cn2c(-c3nc4cc(C(=O)N5CCC[C@@H](N)C5)ccn4c3C)cc3cc(F)c(F)cc32)c1 [Compound 55, (R)-(3-aminopiperidin-1-yl)(2-(5,6-difluoro-1-(3-methoxybenzyl)-1H-indol-2-yl)-3-methylimidazo[1,2-a]pyridin-7-yl)methanone]
< 1000	≤ 1000	Cc1c(-c2cc3ccccc3n2Cc2cncnc2)nc2cc(C(=O)N3CCC[C@@H](N)C3)ccn12 [Compound 58, (R)-(3-aminopiperidin-1-yl) (3-methyl-2-(1-(pyrimidin-5-ylmethyl)-1H-indol-2-yl)imidazo[1,2-a]pyridin-7-yl)methanone Trifluoroacetic Acid Salt]
< 1000	–	Cc1c(-c2cc3ccccc3n2CC(C)C)nc2cc(C(=O)N3CCC[C@@H](N)C3)ccn12 [Compound 60, (R)-(3-aminopiperidin-1-yl)(2-(1-isobutyl-1H-indol-2-yl)-3-methylimidazo[1,2-a]pyridin-7-yl)methanone]
< 1000	–	Cc1c(-c2cc3ccccc3n2CC2CCC2)nc2cc(C(=O)N3CCC[C@@H](N)C3)ccn12 [Compound 61, (R)-(3-aminopiperidin-1-yl)(2-(1-(cyclobutylmethyl)-1H-indol-2-yl)-3-methylimidazo[1,2-a]pyridin-7-yl)methanone]
< 1000	–	Cc1c(-c2cc3ccccc3n2Cc2ncccc2F)nc2cc(C(=O)N3CCC[C@@H](N)C3)ccn12 [Compound 62, (R)-(3-aminopiperidin-1-yl)(2-(1-((3-fluoropyridin-2-yl)methyl)-1H-indol-2-yl)-3-methylimidazo[1,2-a]pyridin-7-yl)methanone]

The remaining lines, values behind:

SMILES	IC50 [1] [nM]	IC50 [2] [nM]
Cc1c(-c2c(Br)c3ccccc3n2CC2CC2)nc2cc(C(=O)N3CCC[C@@H](N)C3)ccn12 [Compound 1, (R)-(3-Aminopiperidin-1-yl)(2-(3-bromo-1-(cyclopropylmethyl)-1H-indol-2-yl)-3-methylimidazo[1,2-a]pyridin-7-yl)methanone]	> 10000	–
CCn1c(-c2nc3cc(C(=O)N4CCC[C@@H](N)C4)ccn3c2C)cc2ccccc21 [Compound 4, (R)-(3-Aminopiperidin-1-yl)(2-(1-ethyl-1H-indol-2-yl)-3-methylimidazo[1,2-a]pyridin-7-yl)methanone]	< 1000	≤ 1000
CCn1c(-c2nc3cc(C(=O)N4CCC[C@@H](N)C4)ccn3c2C)c(-c2ccccc2)c2ccccc21 [Compound 5, (R)-(3-Aminopiperidin-1-yl)(2-(1-ethyl-3-phenyl-1H-indol-2-yl)-3-methylimidazo[1,2-a]pyridin-7-yl)methanone]	> 10000	–
CCn1c(-c2nc3cc(C(=O)N4CC[C@@H](N)C4)ccn3c2C)c(-c2ccccc2)c2ccccc21 [Compound 6, (R)-(3-Aminopyrrolidin-1-yl)(2-(1-ethyl-3-phenyl-1H-indol-2-yl)-3-methylimidazo[1,2-a]pyridin-7-yl)methanone]	> 10000	–
CCn1c(-c2nc3cc(C(=O)N4CC[C@@H](N)C4)ccn3c2C)cc2ccccc21 [Compound 7, (R)-(3-Aminopyrrolidin-1-yl)(2-(1-ethyl-1H-indol-2-yl)-3-methylimidazo[1,2-a]pyridin-7-yl)methanone]	> 10000	–
Cc1c(-c2cc3ccccc3n2CC2CC2)nc2cc(C(=O)N3CC[C@@H](N)C3)ccn12 [Compound 8, (R)-(3-Aminopyrrolidin-1-yl)(2-(1-(cyclopropylmethyl)-1H-indol-2-yl)-3-methylimidazo[1,2-a]pyridin-7-yl)methanone]	> 10000	–
Cc1c(-c2cc3ccccc3n2Cc2cccc(F)c2)nc2cc(C(=O)N3CCC[C@@H](N)C3)ccn12 [Compound 35, (R)-(3-aminopiperidin-1-yl)(2-(1-(3-fluorobenzyl)-1H-indol-2-yl)-3-methylimidazo[1,2-a]pyridin-7-yl)methanone]	< 1000	–
Cc1c(-c2cc3ccccc3n2Cc2ccoc2)nc2cc(C(=O)N3CCC[C@@H](N)C3)ccn12 [Compound 37, (R)-(3-aminopiperidin-1-yl)(2-(1-(furan-3-ylmethyl)-1H-indol-2-yl)-3-methylimidazo[1,2-a]pyridin-7-yl)methanone]	< 1000	–
Cc1csc(Cn2c(-c3nc4cc(C(=O)N5CCC[C@@H](N)C5)ccn4c3C)cc3ccccc32)n1 [Compound 41, (R)-(3-aminopiperidin-1-yl)(3-methyl-2-(1-((4-methylthiazol-2-yl)methyl)-1H-indol-2-yl)imidazo[1,2-a]pyridin-7-yl)methanone]	< 1000	≤ 1000
Cc1c(-c2cc3cccc(Cl)c3n2CC2CC2)nc2cc(C(=O)N3CCC[C@@H](N)C3)ccn12 [Compound 44, (R)-(3-aminopiperidin-1-yl)(2-(7-chloro-1-(cyclopropylmethyl)-1H-indol-2-yl)-3-methylimidazo[1,2-a]pyridin-7-yl)methanone]	< 1000	≤ 1000
Cc1c(-c2cc3ccccc3n2Cc2ccc(F)cc2)nc2cc(C(=S)N3CCC[C@@H](N)C3)ccn12 [Compound 45, (R)-(3-aminopiperidin-1-yl)(2-(1-(4-fluorobenzyl)-1H-indol-2-yl)-3-methylimidazo[1,2-a]pyridin-7-yl)methanethione]	< 1000	≤ 1000
Cc1c(-c2cc3ccccc3n2C)nc2cc(C(=O)N3CCC[C@@H](N)C3)ccn12 [Compound 46, (R)-(3-aminopiperidin-1-yl)(3-methyl-2-(1-methyl-1H-indol-2-yl)imidazo[1,2-a]pyridin-7-yl)methanone]	> 10000	–
